The results in this text go back to patent US10280139B2, “Cytotoxic peptides and conjugates thereof” (priority 2014, dated 2019).

What is called IC50 is the point on the concentration scale where inhibition reaches its midpoint. The low end stands for greater potency, the high end for weaker potency.

What all share (assay): In vitro cell killing assay of compounds of Formula (I), Cell-Titer-Glo
What all share (type): cell-based

Test [1] concerns Jurkat cells. Particulars: Homo sapiens, 120 h, free compound, five days incubation. The protocol: (§1) For evaluation of the cell killing potency of the compounds of Formula (I) in vitro, cell proliferation assays were performed in parallel with 8 cell lines: MDA-MB231 clone 16, clone 40, JimT1, HCC1954, NCl-H526, KU812, CMK11-5 cells and Jurkat cells. […] The cell proliferation assays were conducted with Cell-Titer-Glo™ (Promega) five days after cells were incubated with various concentrations of the compound (Riss et al., (2004) Assay Drug Dev Technol. 2:51-62).

For test [2], the system named is HCC1954. To be noted: Homo sapiens, HCC1954, 120 h; free compound, five days incubation. The protocol:
as §1

In test [3] the test system is MDA-MB231 clone 40. Particulars: Homo sapiens, MDA-MB-231, 120 h; free compound, five days incubation. The protocol: as §1
For test [4], the system named is JimT1. To be noted: Homo sapiens, JIMT-1, 120 h; free compound, five days incubation. The protocol: as §1
The test system of test [5] is CMK11-5 cells. To be noted: Homo sapiens, CMK-11-5, 120 h; free compound, five days incubation. The protocol:
as §1

For test [6], the system named is MDA-MB231 clone 16. Particulars: Homo sapiens, MDA-MB-231, 120 h; free compound, five days incubation. The protocol: as §1
In test [7] the test system is NCI-H526. Particulars: Homo sapiens, NCI-H526, 120 h; free compound, five days incubation. The protocol: as §1
The subject of test [8] is KU812. To be noted: Homo sapiens, KU812, 120 h; free compound, five days incubation. The protocol:
as §1

Turning to `CC[C@H](C)[C@@H]([C@@H](CC(=O)N1CCC[C@H]1[C@H](OC)[C@@H](C)C(=O)N[C@@H](Cc1ccccc1)C(=O)O)OC)N(C)C(=O)[C@@H](/N=C(\N(C)C)N(C)CCN(C)C(=O)CCCCCN1C(=O)C=CC1=O)C(C)C` [NL-9, (S)-2-((2R,3R)-3-((S)-1-((3R,4S,7S,E)-4-((S)-sec-butyl)-9-(dimethylamino)-19-(2,5-dioxo-2,5-dihydro-1H-pyrrol-1-yl)-7-isopropyl-3-methoxy-5,10,13-trimethyl-6,14-dioxo-5,8,10,13-tetraazanonadec-8-en-1-oyl)pyrrolidin-2-yl)-3-methoxy-2-methylpropanamido)-3-phenylpropanoic acid], the IC50 in test [1] came to 6.1 nM; in test [2] it was 2.3 nM; in test [3] it was 11.7 nM; in test [4] it was 14.2 nM; in test [5], 10.4 nM; in test [6], 8.1 nM. The IC50 in test [7] turned out to be 29.5 nM; in test [8] it was 8.4 nM.
On to `CC[C@H](C)[C@@H]([C@@H](CC(=O)N1CCC[C@H]1[C@H](OC)[C@@H](C)C(=O)N[C@@H](Cc1ccccc1)C(=O)OC)OC)N(C)C(=O)[C@@H](NC(=O)N(C(C)C)C(C)C)C(C)C` [FP-5, (S)-methyl-2-((2R,3R)-3-((S)-1-((3R,4S,5S)-4-((S)-2-(3,3-diisopropylureido)-N,3-dimethylbutanamido)-3-methoxy-5-methylheptanoyl)pyrrolidin-2-yl)-3-methoxy-2-methylpropanamido)-3-phenylpropanoate], for which the IC50 amounted to 49.9 nM in test [1]; 47 nM in test [2]; 139 nM in test [3]; 44.7 nM in test [4]; 74.8 nM in test [5]; 83.5 nM in test [6]. Also, the results for the IC50 in test [7] and in test [8] were 204 nM and 106 nM, respectively.
Regarding `CC[C@H](C)[C@@H]([C@@H](CC(=O)N1CCC[C@H]1[C@H](OC)[C@@H](C)C(=O)N[C@@H](Cc1ccccc1)C(=O)NS(=O)(=O)CCCN=[N+]=[N-])OC)N(C)C(=O)[C@@H](N=C(N(C)C)N(C)C)C(C)C` [FP-3, (S)-2-((bis(dimethylamino)methylene)amino)-1-(((3R,4S,5S)-1-((S)-2-((1R,2R)-3-(((S)-N-1-(3-azidopropylsulfonamido)-1-oxo-3-phenylpropan-2-yl)amino)-1-methoxy-2-methyl-3-oxopropyl)pyrrolidin-1-yl)-3-methoxy-5-methyl-1-oxoheptan-4-yl)(methyl)amino)-3-methyl-1-oxobutane], the IC50 in test [1] turned out to be 3.01 nM; in test [2], 10.8 nM; in test [3] it was 23.9 nM; in test [4] it was 42.1 nM; in test [5] it was 14.7 nM; in test [6] it was 12.7 nM. Besides, the IC50 in test [7] amounted to 22 nM; in test [8] it was 6.78 nM.
